# Several values for one entry are separate records, joined by “and”; a condition that tells them apart may be missing. Equal values may be shown once.
# What was measured:
# [1] = NHP health screening: hematology (CBC); assay type: in vivo, rhesus macaques (Macaca mulatta); conditions: treated macaques, individual animals
# [2] = NHP clinical observation, physical exams and reproductive follow-up
# Experimental: Under light-anesthesia/sedation, peripheral blood samples were collected from each animal prior to treatment and at 7 time points following. Blood analysis (CBC and serum chemistry assays) and physical exams to evaluate the health of the study animals were performed on each animal prior to the beginning of the study and also at three time points during the treatment protocol (see Supplementary data).
smiles,measurement,setting,value
Cc1c(C(=O)N[C@H](C(=O)OCC2CCOCC2)C(C)C)ccc2c1B(O)OC2 [AN15368],Lymp,[1]; mid-dosing bleed,3.35 10^3/µL and 4.79 10^3/µL and 3.28 10^3/µL and 5.22 10^3/µL and 2.3 10^3/µL and 2.17 10^3/µL and 3.7 10^3/µL and 4.02 10^3/µL and 5.12 10^3/µL and 2.39 10^3/µL and 2.58 10^3/µL and 3.15 10^3/µL and 3.84 10^3/µL and 2.63 10^3/µL and 2.99 10^3/µL and 4.63 10^3/µL and 1.5 10^3/µL and 2.51 10^3/µL and 3.89 10^3/µL
same,Mch,[1]; mid-dosing bleed,23.8 Pgs and 22.9 Pgs and 24.1 Pgs and 24.7 Pgs and 24 Pgs and 22.6 Pgs and 24.4 Pgs and 23.9 Pgs and 22.5 Pgs and 23.1 Pgs and 23.3 Pgs and 23.7 Pgs and 22.8 Pgs and 23 Pgs and 22.7 Pgs and 23.6 Pgs
same,Mchc,[1]; mid-dosing bleed,31.8 G/Dl and 33.3 G/Dl and 31.2 G/Dl and 31.7 G/Dl and 32.2 G/Dl and 32 G/Dl and 32.8 G/Dl and 32.5 G/Dl and 30.8 G/Dl and 32.1 G/Dl and 31.6 G/Dl and 31.9 G/Dl and 33.2 G/Dl and 32.3 G/Dl
same,Mcv,[1]; mid-dosing bleed,74.9 fL and 68.9 fL and 77.2 fL and 78 fL and 74.5 fL and 70.8 fL and 74.6 fL and 73.8 fL and 72.9 fL and 76.6 fL and 72.2 fL and 76.4 fL and 74.7 fL and 74.4 fL and 71.4 fL and 72.1 fL and 71.2 fL
same,Mono,[1]; mid-dosing bleed,0.25 10^3/µL and 0.22 10^3/µL and 0.19 10^3/µL and 0.43 10^3/µL and 0.26 10^3/µL and 0.21 10^3/µL and 0.16 10^3/µL and 0.58 10^3/µL and 0.3 10^3/µL and 0.38 10^3/µL and 0.13 10^3/µL and 0.32 10^3/µL and 0.28 10^3/µL and 0.08 10^3/µL and 0.17 10^3/µL and 0.5 10^3/µL
same,Mpv,[1]; mid-dosing bleed,6.5 fL and 7.2 fL and 7.4 fL and 9.2 fL and 9.1 fL and 6.8 fL and 6.6 fL and 6.7 fL and 7.7 fL and 8.1 fL and 7.9 fL and 7.1 fL and 7.5 fL and 8.8 fL and 8.5 fL
same,Neut,[1]; mid-dosing bleed,1.09 10^3/µL and 1.04 10^3/µL and 2.08 10^3/µL and 1.9 10^3/µL and 3.38 10^3/µL and 1.51 10^3/µL and 1.78 10^3/µL and 2.28 10^3/µL and 1.12 10^3/µL and 2.03 10^3/µL and 1.69 10^3/µL and 3.43 10^3/µL and 3.82 10^3/µL and 1.6 10^3/µL and 3.07 10^3/µL and 1.17 10^3/µL and 1.61 10^3/µL and 1.53 10^3/µL and 0.96 10^3/µL
same,Plt,[1]; mid-dosing bleed,354 10^3/µL and 311 10^3/µL and 210 10^3/µL and 266 10^3/µL and 220 10^3/µL and 317 10^3/µL and 438 10^3/µL and 380 10^3/µL and 279 10^3/µL and 251 10^3/µL and 373 10^3/µL and 367 10^3/µL and 434 10^3/µL and 280 10^3/µL and 260 10^3/µL and 432 10^3/µL and 291 10^3/µL and 288 10^3/µL and 306 10^3/µL
same,Rbc,[1]; mid-dosing bleed,5.5 10^6/µL and 6.2 10^6/µL and 5.27 10^6/µL and 5.91 10^6/µL and 5.33 10^6/µL and 6.13 10^6/µL and 5.36 10^6/µL and 5.46 10^6/µL and 5.69 10^6/µL and 5.47 10^6/µL and 5.82 10^6/µL and 5.18 10^6/µL and 5.8 10^6/µL and 5.32 10^6/µL and 6.12 10^6/µL and 5.24 10^6/µL
same,Rdw,[1]; mid-dosing bleed,12.8% and 11.9% and 12.5% and 12.1% and 12.7% and 12% and 13.5% and 12.9% and 12.4% and 11.3% and 12.3%
same,Wbc,[1]; mid-dosing bleed,4.78 10^3/µL and 6.15 10^3/µL and 5.63 10^3/µL and 7.65 10^3/µL and 6 10^3/µL and 3.99 10^3/µL and 5.7 10^3/µL and 7.05 10^3/µL and 6.59 10^3/µL and 4.73 10^3/µL and 4.52 10^3/µL and 7.07 10^3/µL and 8.23 10^3/µL and 4.45 10^3/µL and 6.3 10^3/µL and 3.22 10^3/µL and 4.27 10^3/µL and 5.62 10^3/µL
same,Baso,[1]; post-dosing bleed,0.01 10^3/µL and 0.02 10^3/µL and 0 10^3/µL and 0.04 10^3/µL and 0.03 10^3/µL
same,Eos,[1]; post-dosing bleed,0.05 10^3/µL and 0.15 10^3/µL and 0.06 10^3/µL and 0.02 10^3/µL and 0.09 10^3/µL and 0.04 10^3/µL and 0.13 10^3/µL and 0.03 10^3/µL and 0.23 10^3/µL and 0.2 10^3/µL and 0.18 10^3/µL
same,Hct,[1]; post-dosing bleed,38.2% and 41.9% and 37.7% and 43% and 39.5% and 42.7% and 41% and 42.1% and 39.9% and 41.8% and 40.8% and 39.1% and 40.4% and 43.7% and 37.1% and 39.6% and 41.1%
same,Hgb,[1]; post-dosing bleed,12.2 G/Dl and 14.1 G/Dl and 12 G/Dl and 13.9 G/Dl and 12.7 G/Dl and 13.1 G/Dl and 13.5 G/Dl and 12.6 G/Dl and 13.4 G/Dl and 12.1 G/Dl and 14 G/Dl and 13 G/Dl and 11.7 G/Dl and 12.9 G/Dl
same,Lymp,[1]; post-dosing bleed,2.22 10^3/µL and 5.87 10^3/µL and 2.42 10^3/µL and 3.66 10^3/µL and 1.59 10^3/µL and 1.61 10^3/µL and 1.2 10^3/µL and 2.96 10^3/µL and 2.61 10^3/µL and 1.64 10^3/µL and 1.73 10^3/µL and 2.56 10^3/µL and 2.26 10^3/µL and 3.27 10^3/µL and 1.82 10^3/µL and 3.4 10^3/µL and 2.49 10^3/µL and 4.82 10^3/µL
same,Mch,[1]; post-dosing bleed,24 Pgs and 23.3 Pgs and 24.2 Pgs and 24.8 Pgs and 24.1 Pgs and 22.8 Pgs and 23.6 Pgs and 22.7 Pgs and 25.1 Pgs and 23.5 Pgs and 24.3 Pgs and 23 Pgs and 23.2 Pgs and 23.4 Pgs
same,Mchc,[1]; post-dosing bleed,31.9 G/Dl and 33.7 G/Dl and 31.8 G/Dl and 32.3 G/Dl and 32.2 G/Dl and 32.6 G/Dl and 32 G/Dl and 32.1 G/Dl and 31.6 G/Dl and 33.3 G/Dl and 32.8 G/Dl and 30.9 G/Dl and 32.4 G/Dl and 31.5 G/Dl and 31.4 G/Dl
same,Mcv,[1]; post-dosing bleed,74.9 fL and 69.4 fL and 76 fL and 76.5 fL and 75.1 fL and 70 fL and 75.4 fL and 73.3 fL and 71.9 fL and 75.6 fL and 71 fL and 76.1 fL and 75 fL and 71.5 fL and 72 fL and 73.8 fL and 71.1 fL
same,Mono,[1]; post-dosing bleed,0.18 10^3/µL and 0.32 10^3/µL and 0.21 10^3/µL and 0.33 10^3/µL and 0.22 10^3/µL and 0.38 10^3/µL and 0.54 10^3/µL and 0.11 10^3/µL and 0.26 10^3/µL and 0.1 10^3/µL and 0.28 10^3/µL and 0.15 10^3/µL and 0.34 10^3/µL
same,Mpv,[1]; post-dosing bleed,6.6 fL and 7.5 fL and 7.4 fL and 10.2 fL and 8.7 fL and 6.9 fL and 7.1 fL and 7 fL and 6.7 fL and 8.3 fL and 8 fL and 6.4 fL and 8.4 fL and 7.2 fL and 6.8 fL
same,Neut,[1]; post-dosing bleed,3.01 10^3/µL and 0.97 10^3/µL and 0.98 10^3/µL and 1.76 10^3/µL and 2.92 10^3/µL and 2.28 10^3/µL and 2.06 10^3/µL and 3.85 10^3/µL and 1.41 10^3/µL and 3.58 10^3/µL and 1.8 10^3/µL and 3.13 10^3/µL and 5.36 10^3/µL and 1.54 10^3/µL and 2.18 10^3/µL and 3.21 10^3/µL and 2.83 10^3/µL and 2.26 10^3/µL and 1.29 10^3/µL
same,Plt,[1]; post-dosing bleed,418 10^3/µL and 319 10^3/µL and 265 10^3/µL and 238 10^3/µL and 242 10^3/µL and 283 10^3/µL and 400 10^3/µL and 311 10^3/µL and 246 10^3/µL and 364 10^3/µL and 390 10^3/µL and 478 10^3/µL and 296 10^3/µL and 291 10^3/µL and 431 10^3/µL and 302 10^3/µL and 342 10^3/µL and 357 10^3/µL
same,Rbc,[1]; post-dosing bleed,5.1 10^6/µL and 6.04 10^6/µL and 4.96 10^6/µL and 5.62 10^6/µL and 5.26 10^6/µL and 6.1 10^6/µL and 5.44 10^6/µL and 5.74 10^6/µL and 5.55 10^6/µL and 5.53 10^6/µL and 5.75 10^6/µL and 5.14 10^6/µL and 5.39 10^6/µL and 6.11 10^6/µL and 5.61 10^6/µL and 5.03 10^6/µL and 5.57 10^6/µL and 5.49 10^6/µL
same,Rdw,[1]; post-dosing bleed,12.7% and 12.2% and 13% and 12% and 13.5% and 11.7% and 12.6% and 12.5% and 13.3% and 11.9% and 12.9% and 12.4% and 12.3% and 11% and 12.8%
same,Wbc,[1]; post-dosing bleed,5.48 10^3/µL and 7.33 10^3/µL and 3.67 10^3/µL and 5.82 10^3/µL and 4.76 10^3/µL and 4.2 10^3/µL and 3.7 10^3/µL and 7.52 10^3/µL and 4.16 10^3/µL and 5.51 10^3/µL and 3.69 10^3/µL and 6.15 10^3/µL and 8.14 10^3/µL and 5.08 10^3/µL and 4.41 10^3/µL and 7.03 10^3/µL and 5.73 10^3/µL and 4.11 10^3/µL and 6.68 10^3/µL
same,adverse events,"[2]; 19 treated macaques, 60 day treatment period",No adverse events
same,healthy and T. cruzi-seronegative infants produced,"[2]; female, rhesus monkey, in vivo, 2 years",13

# Source: publication PMC9519446, “Discovery of an Orally Active Benzoxaborole Prodrug Effective in the Treatment of Chagas Disease in Non-human Primates” (Nature microbiology, 2022)
